The text below walks through data of US7910600B2, “Therapeutic kinase modulators” (Cylene Pharmaceuticals, Inc., priority 2007, dated 2011).

One assay deals with Jurkat. As to the kind of experiment: Cell proliferation assay (Alamar Blue), Jurkat. Format: cell-based. Conditions: Homo sapiens; Jurkat cell line. Here is the method:
(§1) A representative cell-proliferation assay protocol using Alamar Blue dye (stored at 4° C., use 20 ul per well) is described hereafter.
(§2) 96-Well Plate Setup and Compound Treatment
(§3) • a. Split and trypsinize cells. • b. Count cells using hemocytometer. • c. Plate 4,000-5,000 cells per well in 100 μl of medium and seed into a 96-well plate according to the following plate layout. Add cell culture medium only to wells B10 to B12. Wells B1 to B9 have cells but no compound added.
(§4) • d. Add 100 μl of 2× drug dilution to each well in a concentration shown in the plate layout above. At the same time, add 100 μl of media into the control wells (wells B10 to B12). Total volume is 200 μl/well. • e. Incubate four (4) days at 37° C., 5% CO2 in a humidified incubator. • f. Add 20 μl Alamar Blue reagent to each well. • g. Incubate for four (4) hours at 37° C., 5% CO2 in a humidified incubator. • h. Record fluorescence at an excitation wavelength of 544 nm and emission wavelength of 590 nm using a microplate reader.
(§5) In the assays, cells are cultured with a test compound for approximately four days, the dye is then added to the cells and fluorescence of […] dye is detected after approximately four hours. Different types of cells can be utilized in the assays (e.g., HCT-116 human colorectal carcinoma cells, PC-3 human prostatic cancer cells and MiaPaca human pancreatic carcinoma cells).
For orientation: The colour change of resazurin is a common sign of viable cells or microbes.

In another assay the test system is BxPC3. The assay can be described thus: Cell proliferation assay (Alamar Blue), BxPC3. Format: cell-based. Conditions: Homo sapiens, BXPC-3; BxPC3 cell line; read-out: Bx-PC3. The procedure: as §1, §2, §3, §4, §5
In the next assay the target is T1, recombinant human CK2 (Homo sapiens, UniProt P68400).
T1 construct: purchased Upstate
T1 sequence (P68400 whole entry): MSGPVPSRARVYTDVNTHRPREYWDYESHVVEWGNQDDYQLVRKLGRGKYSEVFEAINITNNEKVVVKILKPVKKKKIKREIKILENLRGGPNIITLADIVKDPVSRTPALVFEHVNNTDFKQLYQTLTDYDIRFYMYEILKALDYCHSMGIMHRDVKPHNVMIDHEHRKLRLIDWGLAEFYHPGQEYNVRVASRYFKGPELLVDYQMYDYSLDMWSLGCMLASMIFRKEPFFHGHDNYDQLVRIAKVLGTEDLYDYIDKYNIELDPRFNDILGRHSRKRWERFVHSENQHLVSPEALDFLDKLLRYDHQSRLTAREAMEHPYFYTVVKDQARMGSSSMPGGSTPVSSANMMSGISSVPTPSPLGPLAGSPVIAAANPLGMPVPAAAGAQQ
T1 sequence (P67870 whole entry partner): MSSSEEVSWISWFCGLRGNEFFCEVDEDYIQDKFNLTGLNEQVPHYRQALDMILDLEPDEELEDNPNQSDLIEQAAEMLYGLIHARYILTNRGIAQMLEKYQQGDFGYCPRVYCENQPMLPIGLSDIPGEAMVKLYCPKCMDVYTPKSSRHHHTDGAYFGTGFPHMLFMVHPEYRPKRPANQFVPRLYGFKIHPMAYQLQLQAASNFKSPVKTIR
The assay can be described thus: Cell-free CK2 assay. Format: biochemical. Conditions: for inhibition at 0.5 µM: read-out: CK2: % inh 500 nM. Here is the method:
Modulatory activity of compounds described herein is assessed in vitro in cell-free CK2 assays. These assays are described hereafter.
Test compounds in aqueous solution are added at a volume of 10 microliters, to a reaction mixture comprising 10 microliters Assay Dilution Buffer (ADB; 20mM MOPS, pH 7.2, 25 mM beta-glycerolphosphate, 5 mM EGTA, 1 mM sodium orthovanadate and 1 mM dithiothreitol), 10 microliters of substrate peptide (RRRDDDSDDD (SEQ ID NO:4), dissolved in ADB at a concentration of 1 mM), 10 microliters of recombinant human CK2 (25 ng dissolved in ADB; Upstate). Reactions are initiated by the addition of 10 microliters of ATP Solution (90% 75 mM MgC12, 75 micromolar ATP dissolved in ADB; 10% [γ-^33P]ATP (stock 1 mCi/100 μl; 3000 Ci/mmol (Perkin Elmer) and maintained for 10 minutes at 30 degrees C. The reactions are quenched with 100 microliters of 0.75% phosphoric acid, then transferred to and filtered through a phosphocellulose filter plate (Millipore). After washing each well 5 times with 0.75% phosphoric acid, the plate is dried under vacuum for 5 min and, following the addition of 15 ul of scintillation fluid to each well, the residual radioactivity is measured using a Wallac […].

Another assay concerns MDA-MB231. The assay can be described thus: Cell proliferation assay (Alamar Blue), MDA-MB231. Format: cell-based. The conditions noted are these: Homo sapiens, MDA-MB-231; MDA-MB231 cell line. Here is the method:
as §1, §2, §3, §4, §5

The subject of another assay is MV-4-11. As to the kind of experiment: Cell proliferation assay (Alamar Blue), MV-4-11. The conditions noted are these: Homo sapiens, MV4-11; MV-4-11 cell line. Format: cell-based. The procedure:
as §1, §2, §3, §4, §5

Another assay relates to K562. As to the kind of experiment: Cell proliferation assay (Alamar Blue), K562. Format: cell-based. Conditions: Homo sapiens; K562 cell line. The procedure: as §1, §2, §3, §4, §5
For the next assay, the system named is PanC1. As to the kind of experiment: Cell proliferation assay (Alamar Blue), PanC1. Format: cell-based. Conditions: Homo sapiens, PANC-1; PanC1 cell line. The procedure: as §1, §2, §3, §4, §5
Assay [1] concerns MiaPaca human pancreatic carcinoma cells. The assay can be described thus: Cell proliferation assay (Alamar Blue), MiaPaCa. Format: cell-based. The conditions noted are these: MIA PaCa-2, MiaPaCa cell line. The procedure: as §1, §2, §3, §4, §5
Assay [2] deals with HCT-116 human colorectal carcinoma cells. The assay can be described thus: Cell proliferation assay (Alamar Blue), HCT-116. Format: cell-based. Conditions: HCT-116 cell line. Here is the method:
as §1, §2, §3, §4, §5

As to `Cn1cc(-c2nc3cc(C(=O)O)ccc3c3cnc(NC4CC4)nc23)cn1`, the IC50 was 3.6 µM with Jurkat; 13.6 µM in the assay on BxPC3; 0.004 µM on recombinant human CK2; over 30 µM in the assay with MDA-MB231; 0.6 µM with MV-4-11; 0.6 µM with K562. For the same molecule, the IC50 in the assay with PanC1 is over 30 µM; in assay [1] it was 0.9 µM; in assay [2] it was over 10 µM. The inhibition at 0.5 µM at recombinant human CK2 came to 101%.
As for `COC(=O)c1ccc2c(c1)nc(-c1ccccc1)c1nc(S(C)(=O)=O)ncc12` [methyl 3-(methylsulfonyl)-5-phenylpyrimido[4,5-c]quinoline-8-carboxylate], the IC50 in the assay on Jurkat turned out to be 0.7 µM; in the assay on BxPC3 it was 10.6 µM; in the assay with MDA-MB231 it was 6.4 µM; in the assay on PanC1, 9.8 µM; in [1], 5.5 µM; in [2] it was 2.7 µM. The inhibition at 0.5 µM on recombinant human CK2 is -18%.
